The text below walks through data of patent US4105766A, “4,5-Dihydro-5-oxopyrazolo[1,5-a]quinazoline-3-carboxylic acid derivatives” (Sterling Drug Inc., priority 1977, dated 1978).

The structures appear in SMILES notation.

The test system of assay [1] is passive cutaneous anaphylaxis. Description: passive cutaneous anaphylaxis test in rats (anti-allergy). The assay is classed as in vivo. As to conditions: for R (ratio, passive cutaneous anaphylaxis) / inhibition in vivo at 100 mg/kg / % Inhibition (passive cutaneous anaphylaxis) / ED50: rats; for R (ratio, passive cutaneous anaphylaxis): R 1.0 to 2.0 inactive, 2.0 to 4.0 weakly active, 4.0 to 8.0 moderately active, >8.0 strongly active; for inhibition in vivo at 100 mg/kg / ED50: Rattus norvegicus, po; for inhibition in vivo at 100 mg/kg / % Inhibition (passive cutaneous anaphylaxis): standard dose of 100 mg./kg. (p.o.); for ED50: passive cutaneous anaphylaxis, read-out: Average Effective Dose50 (AED50). The text has this:
(1) The inhibition of carrageenin-induced foot edema test essentially described by Winter et al., Proc. Soc. Exp. Biol. and Med. 111, 544 (1962) as modified by Van Arman et al., J. Pharmacol. Exptl. Therap. 150, 328 (1965) and (2) a modification of the inhibition of adjuvant-induced arthritis test described by Pierson, J. Chronic Diseases 16, 863 (1963) and Glenn et al., Am. J. Vet. Res. 26, 1180 (1965), which were used to establish the anti-inflammatory activities of the compounds; and the passive cutaneous anaphylaxis test described by Mielens et al., Int. Arch. Allergy Appl. Immunol. 47, 633-649 (1974) which was used to establish the anti-allergy activity of the compounds.
Results are expressed either in terms of % Inhibition at a standard dose of 100 mg./kg. (p.o.), as an Average Effective Dose50 (AED50), or as a ratio, R, where: [formula]

In assay [2] the test system is carrageenin-induced foot edema. The assay is described as follows: carrageenin-edema test (CE), inhibition of carrageenin-induced foot edema in rats. The assay is classed as in vivo. Particulars: Rattus norvegicus, read-out: % Inhibition C.E.; for inhibition in vivo at 80 µmol/kg: dose .08 mmole/kg.; for inhibition in vivo at 324 µmol/kg: dose .324 mmole/kg. How it is done: (1) The inhibition of carrageenin-induced foot edema test essentially described by Winter et al., Proc. Soc. […] Therap. […] J. Vet. […] Arch. Allergy Appl. Immunol.
Here, and elsewhere in other tables which follow, compounds are identified by the Example number above where their preparations are recorded. For purposes of comparison, data are also given for the reference compound 4,5-dihydro-5-oxopyrazolo[1,5-a]quinazoline-3-carboxylic acid disclosed by Wright, ibid., identified here and elsewhere in the tables which follow as "Ref.".

For assay [3], the system named is adjuvant-induced arthritis. Description: adjuvant arthritis test (AA), inhibition of adjuvant-induced arthritis in rats. The assay is classed as in vivo. As to conditions: Rattus norvegicus; for inhibition in vivo at 324 µmol/kg: dose .324 mmole/kg.; for inhibition in vivo at 20 µmol/kg: dose .02 mmole/kg.; for inhibition in vivo at 80 µmol/kg: dose .08 mmole/kg.
In a further assay the test system is Trypanosoma brucei. The assay is described as follows: trypanosomicidal test in infected mice. The assay is classed as in vivo, Trypanosoma brucei (in mice). How it is done: Trypanosomicidal activity of the compounds of the invention was determined in a test procedure in which albino female mice (Taconic Farms) weighing 20± 2 g. were intraperitoneally injected 3 days prior to initial medication with 0.2 ml. of an inoculum containing 500 Trypanosoma brucei organisms in 0.85% sterile saline. Blood for infecting purposes was obtained via cardiac puncture of a donor mouse previously determined to have a high parasitemia. Test medications to groups of five mice were started 3 days after infection at a time when the animals had begun to develop a rising blood parasitemia. […] Groups of 10 non-medicated infected control mice and five animals medicated with the reference compound LAMPIT® (tetrahydro-3-methyl-4-[(5-nitrofurfurylidene)amino]-2H-1,4-thiazine-1,1-dioxide) were included in each screening test. The test system is based on the survival of animals medicated with the test compound, and those mice alive at the end of 28 days post-infection were recorded as cured. (Non-medicated infected control mice rarely succumb later than 5 to 6 days post-innoculation with T. brucei). A compound was considered active if at least two of five animals survived until the termination of a 28 day post-infection holding period.
(§1) Results obtained in amoebacidal and trypanosomicidal tests on the compounds of the invention against E. criceti and T. brucei, respectively, are given in the table below. Results are expressed as a ratio: Number of Animals Cleared/Total Test Animals.

A further assay relates to Entamoeba criceti. Description: amoebacidal test in naturally infected hamsters. The assay is classed as in vivo, Entamoeba criceti (in hamsters). How it is done: Anti-parasitic activity of the compounds was shown by the following test procedures. Amoebacidal activity was shown in a test in which 100 or more female hamsters (Sprague-Dawley) weighing between 90 and 130 g. were individually weighed and sorted into groups of five animals each averaging either 100 ± 10 g. or 120 ± 10g. The test compounds (at least 200 mg.) and a reference standard, N,N'-(phenylenedimethylene)-bis[α,α-dichloro-N-(2-ethoxyethyl)acetamide] (FALMONOX®), were dissolved or suspended in 10 percent gelatin. The test compounds and the reference standard were administered to the naturally infected hamsters intragastrically via syringe in equally subdivided doses of 0.5 ml. […] On the fourth day each of the test animals and the five hamsters receiving the reference drug, as well as non-medicated infected control animals, were killed and a portion of the mucus from the wall of the cecum was mixed in a drop of 0.85% sodium chloride. The preparation was examined under low power (100 ×) of a compound microscope for the presence of motile trophozoites of Entamoeba criceti, and when a preparation was determined to be free from trophozoites, a second specimen was taken from another part of the cecum of the same animal and thoroughly examined before the animal was declared cleared of amoebas. […] Results were recorded as a fraction: number of hamsters cleared/number of hamsters treated.
as §1

Setting [4] is: dose 200 mg./kg. p.o. 2×/day × 4.

For `CCOC(=O)c1cnn2c3ccc(F)cc3c(=O)n(C)c12` [Example 2K], the “R (ratio, passive cutaneous anaphylaxis)” value in assay [1] is given as 3.0.

As to `CC(C)=CCn1c(=O)c2ccccc2n2ncc(C(=O)O)c12` [Example 7E], in assay [2], the inhibition in vivo at 80 µmol/kg is 3% and the inhibition in vivo at 324 µmol/kg was found to be 4%. For the same compound, the inhibition in vivo at 324 µmol/kg in assay [3] was determined as 34%. Also, the “R (ratio, passive cutaneous anaphylaxis)” value in assay [1] amounted to 3.8.

For `C=CCn1c(=O)c2ccccc2n2ncc(C(=O)O)c12` [Example 7B, 4-(2-propenyl)-4,5-dihydro-5-oxopyrazolo[1,5-a]quinazoline-3-carboxylic acid], in assay [2], the inhibition in vivo at 80 µmol/kg stood at 38% and the inhibition in vivo at 324 µmol/kg stood at 73%. In addition, in assay [3], the inhibition in vivo at 20 µmol/kg worked out at 18%, the inhibition in vivo at 80 µmol/kg came out at 34% and the inhibition in vivo at 324 µmol/kg was found to be 84%. In assay [1], this compound showed an inhibition in vivo at 100 mg/kg of 40%.

With `CCOC(=O)c1cnn2c1[nH]c(=O)c1ccc(C)cc12` [Example 1B], the “% Inhibition (passive cutaneous anaphylaxis)” value in assay [1] was “Inac”.

Take `Cn1c(=O)c2ccc(Cl)cc2n2ncc(C(=O)O)c12` [Example 7M]: in assay [1], the inhibition in vivo at 100 mg/kg was determined as 56%. In addition, the “No. Cleared/No. Tested, Tryp.” value with Trypanosoma brucei (dose 200 mg./kg. p.o., i.p.) is on record as 5/5.

Take `C=C(C)Cn1c(=O)c2ccccc2n2ncc(C(=O)O)c12` [Example 7D]: in assay [2], the inhibition in vivo at 80 µmol/kg was 15% and the inhibition in vivo at 324 µmol/kg was determined as 24%. Further, the inhibition in vivo at 324 µmol/kg in assay [3] turned out to be 43%. The “R (ratio, passive cutaneous anaphylaxis)” value in assay [1] is given as 4.6.

On to `O=C(O)c1cnn2c1[nH]c(=O)c1ccccc12` [Ref., 4,5-dihydro-5-oxopyrazolo[1,5-a]quinazoline-3-carboxylic acid], for which, in assay [2], the inhibition in vivo at 80 µmol/kg came to 0% and the inhibition in vivo at 324 µmol/kg is 7%. Also, in assay [3], the inhibition in vivo at 20 µmol/kg worked out at 26%, the inhibition in vivo at 80 µmol/kg is 31% and the inhibition in vivo at 324 µmol/kg is 10%. Besides, in assay [1], the ED50 was 2 to 15 mg/kg and the inhibition in vivo at 100 mg/kg came out at 62%. Besides, in assay [1] (rat, in vivo), the “anti-allergic activity (in words)” value is “possesses anti-allergic activity”.

With `O=C(O)c1cnn2c3ccccc3c(=O)n(CC3CC3)c12` [Example 7C], in assay [2], the inhibition in vivo at 80 µmol/kg came to 25% and the inhibition in vivo at 324 µmol/kg stood at 33%. Besides, the inhibition in vivo at 324 µmol/kg in assay [3] was 74%. The “R (ratio, passive cutaneous anaphylaxis)” value in assay [1] came to 6.5.

In turn, `Cn1c(=O)c2cc(Br)ccc2n2ncc(C(=O)O)c12` [Example 7R] registered an inhibition in vivo at 100 mg/kg in assay [1] of 63%.

With `CCOC(=O)c1cnn2c1[nH]c(=O)c1cc(F)ccc12` [Example 1E], in assay [1], the “% Inhibition (passive cutaneous anaphylaxis)” value is given as “Inac”.

Take `CCOC(=O)c1cnn2c3ccc([N+](=O)[O-])cc3c(=O)n(C)c12` [Example 4, ethyl 4-methyl-7-nitro-4,5-dihydro-5-oxopyrazolo[1,5-a]quinazoline-3-carboxylate]: in the assay with Entamoeba criceti (dose 100 mg./kg.), the “No. Cleared/No. Tested, Amoeba” value was 2/4.

Take `Cc1ccc2c(c1)c(=O)[nH]c1c(C(=O)O)cnn12` [Example 7F]: the inhibition in vivo at 100 mg/kg in assay [1] turned out to be 65%.

On to `CCOC(=O)c1cnn2c1[nH]c(=O)c1cc(Cl)ccc12` [Example 1C], for which, in assay [1], the inhibition in vivo at 100 mg/kg came out at 48%.

As for `Cn1c(=O)c2ccccc2n2ncc(C(=O)O)c12` [Example 7, 4-methyl-4,5-dihydro-5-oxopyrazolo[1,5-a]quinazoline-3-carboxylic acid], the inhibition in vivo at 324 µmol/kg in assay [2] stood at 11%; in assay [3], 39%. In addition, the inhibition in vivo at 80 µmol/kg in assay [3] was found to be 16%. The same compound showed an inhibition in vivo at 100 mg/kg in assay [1] of 68%. For the same compound, the “No. Cleared/No. Tested, Tryp.” value was 0/5 in the assay on Trypanosoma brucei (dose 100 mg./kg. p.o. 2×/day × 4) and 5/5 in the assay on Trypanosoma brucei (setting [4]).

Consider `Cn1c(=O)c2cc(Cl)ccc2n2ncc(C(=O)O)c12` [Example 7K], for which the ED50 in assay [1] stood at 9 mg/kg. In addition, in the assay on Trypanosoma brucei (dose 200 mg./kg. p.o., i.p.), the “No. Cleared/No. Tested, Tryp.” value is 2/4.

For `O=C(O)c1cnn2c1[nH]c(=O)c1cc(Cl)ccc12` [Example 7J], in assay [1], the ED50 fell in the range of 5 to 10 mg/kg and the inhibition in vivo at 100 mg/kg was 92%.

As for `CCn1c(=O)c2ccccc2n2ncc(C(=O)O)c12` [Example 7A], the inhibition in vivo at 324 µmol/kg in assay [2] came to 33%. For the same compound, the inhibition in vivo at 80 µmol/kg in assay [3] was 27%. In addition, in assay [1], the ED50 was 12 mg/kg and the inhibition in vivo at 100 mg/kg was 81%.

On to `Cn1c(=O)c2cc(N)ccc2n2ncc(C(=O)O)c12` [Example 10, 7-amino-4-methyl-4,5-dihydro-5-oxopyrazolo[1,5-a]quinazoline-3-carboxylic acid], for which the figures for the “No. Cleared/No. Tested, Amoeba” value in the assay with Entamoeba criceti (dose 50 mg./kg.) and in the assay with Entamoeba criceti (dose 100 mg./kg.) were 0/5 and 5/5, respectively.

For `C=CCn1c(=O)c2ccccc2n2ncc(C(=O)O)c12` [Example 8, sodium 4-(2-propenyl)-4,5-dihydro-5-oxopyrazolo[1,5-a]quinazoline-3-carboxylate], in assay [2] (dose .09 mmole/kg.), the inhibition in vivo at 90 µmol/kg was 20%. In addition, in assay [2] (dose .36 mmole/kg.), the inhibition in vivo at 360 µmol/kg stood at 31%. In assay [3], the inhibition in vivo at 20 µmol/kg was 29%, the inhibition in vivo at 80 µmol/kg came to 47% and the inhibition in vivo at 324 µmol/kg came to 80%.

Turning to `Cc1ccc2c(c1)c(=O)n(C)c1c(C(=O)O)cnn21` [Example 7H], the ED50 in assay [1] was determined as 34 mg/kg. The inhibition in vivo at 100 mg/kg in assay [1] was found to be 73%. The “No. Cleared/No. Tested, Tryp.” value is recorded as 10/10 in the assay with Trypanosoma brucei (setting [4]) and 4/5 in the assay with Trypanosoma brucei (dose 200 mg./kg. p.o., i.p.).

On to `Cc1ccc2c(=O)[nH]c3c(C(=O)O)cnn3c2c1` [Example 7G], for which, in assay [1], the ED50 was around 15 mg/kg.

Regarding `CCOC(=O)c1cnn2c3cc(C)ccc3c(=O)n(C)c12` [Example 2G], in assay [1], the inhibition in vivo at 100 mg/kg amounted to 46%.

For `CCOC(=O)c1cnn2c3ccccc3c(=O)n(C)c12` [Example 2, ethyl 4-methyl-4,5-dihydro-5-oxopyrazolo[1,5-a]quinazoline-3-carboxylate], the “No. Cleared/No. Tested, Tryp.” value with Trypanosoma brucei (dose 50 mg./kg. p.o., i.p.) is listed as 0/5; in the assay with Trypanosoma brucei (dose 200 mg./kg. p.o., i.p.) it was 2/5.

On to `CCOC(=O)c1cnn2c1[nH]c(=O)c1cc(C)ccc12` [Example 1A], for which the inhibition in vivo at 100 mg/kg in assay [1] came out at 63%.

For the compound `C=CCn1c(=O)c2cc(F)ccc2n2ncc(C(=O)O)c12` [Example 7Q], in assay [2], the inhibition in vivo at 80 µmol/kg came to 0% and the inhibition in vivo at 324 µmol/kg was found to be 4%. Moreover, in assay [3], the inhibition in vivo at 324 µmol/kg is 72%.

For the compound `Cn1c(=O)c2ccccc2n2ncc(C(=O)OCOC(=O)C(C)(C)C)c12` [Example 9, pivaloyloxymethyl 4-methyl-4,5-dihydro-5-oxopyrazolo[1,5-a]quinazoline-3-carboxylate], the “R (ratio, passive cutaneous anaphylaxis)” value in assay [1] stood at 6.7.

For the compound `Cn1c(=O)c2cc([N+](=O)[O-])ccc2n2ncc(C(=O)O)c12` [Example 7S], the ED50 in assay [1] was 37 mg/kg.
